{"source": "patent US20060029548A1", "about": "“Methods of diagnosing, monitoring and treating pulmonary diseases” (priority 2004, published 2006)", "key": {"[1]": {"system": "pulmonary RAR-containing afferent nerve fiber", "test": "Vagal activation experiments in dogs: action potentials in RAR-containing fibers", "assay_type": "in vivo", "settings": "anesthetized dog", "protocol": "The experiments described in Example 5 were performed essentially as described in Pelleg et al. [(1996) J. Physiol. 490(1):265-275] and U.S. Pat. No. 5,874,420, both of which are incorporated herein by reference in their entirety. In brief, they were performed on anesthetized (sodium pentobarbitone, 30 mg kg^−1 plus 3 mg kg^−1 h^−1, intravenous) dogs artificially ventilated with room air using a respirator. Arterial blood pH, PO2, PCO2, body temperature were maintained as described in U.S. Pat. No. 5,874,420. A peripheral vein was cannulated for the administration of physiological saline solution and maintenance doses of anesthetic. Catheters were introduced via the femoral vein and left atrial appendage and positioned in the right atrium and left atrium for the administration of test solutions. The chest was opened by a longitudinal sternotomy. The right cervical vagosympathetic trunk was exposed by a midcervical longitudinal section of the skin and careful dissection of neck muscles and connective tissues. The edges of the cut skin were elevated and secured to create a trough which was filled with warm (about 37° C.) mineral oil. A section of the vagosympathetic trunk was placed on a small plate of black Perspex™ and fine branches were separated from the main bundle by careful dissection using microsurgical tools and a dissecting microscope (Model F212, Jenopik Jena, GmbH, Germany).\nExtracellular neural action potentials were recorded using a custom-made bipolar electrode that contained two platinum-iridium wires (1.25 cm×0.0125 cm) connected to a high-impedence first-stage differential amplifier (model AC8331, CW, Inc., Ardmore, Pa.) via a shielded cable. The output of the first-stage amplifier was fed into a second-stage differential amplifier (model BMA-831/C, CWE, Inc.). Isolated fibers were laid on the pair of platinum-iridium wires. Vagal C fibers with chemosensitive endings have a sparse irregular discharge which is not associated with cardiac or respiratory cycles. Confirmation of fiber type was obtained by: first monitoring the response to capsaicin (10 microg kg^−1, intra-right atrial bolus); second, monitoring the response to mechanical stimulation of the lungs using gentle probing with forceps as well as inflation of the lungs to 2-3 times the tidal volume; and third, determining the speed of conduction using a stimulating electrode positioned distal to the initial recording site. Nerve fibers with RAR on their pulmonary endings, spontaneously fire a brief (i.e., short lasting) volley of action potentials associated with peak tracheal pressure during each respiratory cycle.\n[…] Volume controls consisted of either 5 ml+5 ml or 1 ml+3 ml physiological saline. All injections were performed in the same mode by the same person. To exclude involvement of baroreceptors in the recorded neural activity, the latter was monitored before and after a bolus of nitroglycerine (1 mg; intravenous).\nThe procedure described in Example 1 was used to measure action potentials in dog pulmonary fibers with RAR on their terminals following administration of various agents. RAR activation generated a brief volley of action potentials associated with each respiratory cycle that was seen before as well as after administration of ATP (FIG. 7). […] Thus ATP modified the activity of the RAR-containing fiber manifested in their transient loss of the rapid adaptability characteristic."}, "[2]": {"system": "human subjects (perception of dyspnoea)", "test": "Borg score for dyspnoea before and after inhalation challenge", "assay_type": "in vivo", "set-up": "key to ΔBorg (change in Borg score before and after challenge): Borg score after minus before challenge; 0–10 scale", "source_text": "The clinical study described in Examples 2-4 was randomized, double blind, crossover, and controlled. Each subject attended the laboratory on three occasions. Procedures on the initial screening visit included obtaining information about the study and a number of investigations in the following order: medical history, lung function, reversibility and skin prick testing. At visit 2 and 3, separated by 2-7 days, the subjects were subjected to either an ATP or AMP challenge in a randomized fashion such that, by the end of the study, each patient had been tested with both compounds. Before, immediately after, and 30 minutes after the challenge, lung function and Borg score for dyspnoea were determined, and symptoms other than dyspnoea were recorded.\nThe modified Borg scale used to quantitate dyspnoea in the clinical study described in Examples 2-4 was a category scale in which words describing degrees of breathlessness were anchored to numbers between 0 and 10. The subjects were asked to select a number whose corresponding words most appropriately described their perception of breathlessness. The change in dyspnoea was expressed as ΔBorg, which was the difference in Borg score before and after the challenge [Rutgers et al. (2000) Eur. Respir. J. 16:486-490; Burdon et al. (1982) Am. Rev. Respir. Dis. 126:825-828]. Terms and associated numbers used in assessing Borg score were as follows: 0, “nothing at all”; 0.5, “very, very slight”; 1, “very slight”; 2, “slight”; 3, “moderate”; 4, “somewhat severe”; 5, “severe”; 7, “very severe”; 9, “very, very severe (almost maximal)”; and 10, “maximal” [Burdon et al. (1982)].\nFor the tests described in Examples 2-4, ATP and AMP (Sigma, Gillingham, Dorset, England) were dissolved freshly in normal saline solution to produce a range of doubling concentrations from 0.227-929 umol/ml for ATP and from 0.138-1152 umol/ml for AMP and immediately used for bronchial challenge. The solutions were administered using a breath-activated dosimeter (Mefar, Bovezzo, Italy) with an output of 10 ul per inhalation [Prieto et al. (2003) Chest 123:993-997]. The subjects, while wearing a nose clip, inhaled (via a mouthpiece) five breaths of normal saline, followed by sequential doubling concentrations of either ATP or AMP from functional residual capacity to total lung capacity. FEV1 was measured from two minutes after the fifth inhalation of normal saline until there was a fall in FEV1 of ≧20% of its value recorded after saline inhalation or until maximal concentration of either ATP or AMP was inhaled. The provocative dose causing a 20% decrease in FEV1 (PD20) was calculated by interpolation of the logarithmic dose response curve."}}, "note": "“Also recorded” adds a separate entry of the source.", "data": [{"smiles": "Nc1ncnc2c1ncn2[C@@H]1O[C@H](COP(=O)(O)OP(=O)(O)OP(=O)(O)O)[C@@H](O)[C@H]1O", "note": "[ATP, adenosine 5′-triphosphate]", "values": [{"measurement": "desensitization on repeated administrations", "setting": "[1]; RAR-containing fibers", "result": "not associated with desensitization"}, {"measurement": "effect on action potentials of RAR-containing fibers", "setting": "[1]; rapid bolus, ATP 6 μmol/kg, capsaicin 10 ug kg−1, analogs 0.75 umol kg−1", "result": "activity of RAR-containing fibers was prolonged; also recorded: stimulated both the C fibers and RAR-containing fibers"}, {"measurement": "ΔBorg (change in Borg score before and after challenge)", "setting": "[2]; COPD", "result": 2.6}, {"measurement": "Borg score after challenge (at PD20)", "setting": "[2]; COPD patients", "result": 2.7}, {"measurement": "Borg score after challenge", "setting": "[2]; healthy smokers", "result": 1.3}, {"measurement": "Borg score after challenge (at PD20)", "setting": "[2]; patients with asthma", "result": 3.3}, {"measurement": "ΔBorg (change in Borg score before and after challenge)", "setting": "[2]; patients with asthma", "result": 3.2}, {"measurement": "Borg score after challenge", "setting": "[2]; smokers at risk", "result": 1.9}]}]}
